Measurements reported in PubChem BioAssay AID179 (DTP/NCI, 2004).
Where “and” joins values, the source holds several entries; their conditions need not be identical. Identical values can stand only once. Calls of active or inactive are those of the source.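 Rule for the calls: active = compounds giving half or more protection of infected cells from virus-caused growth loss, again on retest; inactive = the rest.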 *1 amine or outer side, *2 acyl side, *3 side chain or, on linkers, in order; H or OH if unused. Where a SMILES comes first, the peptide text is derived from it. [ ]: non-standard residue; d: D form. The star is where a group is joined. ξ: configuration not given here. X19 = O=C(OCc1ccccc1)[C@H]1CCC[C@H]1N*; X3 = CC(=O)N(C)SCC(N[*:1])C(=O)[*:2]; ξW = NC(Cc1c[nH]c2ccccc12)C(=O)O; ξF = NC(Cc1ccccc1)C(=O)O; Cbz = O=C(OCc1ccccc1)*; Boc = CC(C)(C)OC(=O)*; ξK = NCCCCC(N)C(=O)O; ξT = CC(O)C(N)C(=O)O; Bn = c1ccc(C*)cc1; tBu = CC(C)(C)*

Tested on: CEM cells HIV-1 protection, formazan growth assay
Assay: NCI AIDS Antiviral Assay
Details: for IC50: measured here: growth of uninfected CEM cells
In short: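 Soluble formazan readout of cell growth; CEM cells ± HIV-1; 5 drug concs. ≥50% protection → retest; ≥50% again = moderately active; reproducible 100% = confirmed active.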

Compound | EC50 | IC50 | outcome
COc1ccc2c(c1)c1c3c(ccc4ncn2c43)N(CCO)CCN=1 | > 100 µM | 0.178 µM | 
CCc1ccccc1NC(=O)C1=C(C)NC(C)=C(C(=O)Nc2ccccc2CC)C1c1ccccc1Cl | > 10 µM | > 10 µM | 
CC(C)C(=O)N[C@@H](C)C(=O)N(Cc1ccc2ccccc2c1)N=O |  |  | inactive
CC1C(c2ccccc2O)c2cc3c(cc2OC1N1CCCC1)OCO3 (stereo unspecified) |  |  | inactive
O=[N+]([O-])c1cccc2nccc(NCC(O)CO)c12 (stereo unspecified) | > 200 µM | 6.17 µM | 
COC(=O)c1cc2ccccc2c(CS(=O)(=O)O)c1O | > 200 µM | 56.2 µM | 
O=C(O)c1ccc(CS(=O)(=O)c2ccccc2)cc1 | > 912 µM | > 912 µM | 
O=c1ccc2nc3cc(Br)ccc3sc-2c1 | > 24.5 µM | > 24.5 µM | 
O=C1CCC(=O)N1Cc1ccccc1N=[N+]([O-])c1ccccc1CN1C(=O)CCC1=O |  | > 200 µM | inactive
O=C1CC23CCCCCCCCCCC2(C1)CC(=O)C3 (stereo unspecified) |  |  | inactive
COc1ccc(/C(=N/O)c2ccccc2C2=Nc3ccccc3C(NCc3ccccc3)O2)cc1C (stereo unspecified) | > 200 µM | 22.4 µM | 
C[n+]1ccc(-c2c3nc(c(-c4cc[n+](C)cc4)c4ccc([n-]4)c(-c4cc[n+](C)cc4)c4nc(c(-c5cc[n+](C)cc5)c5ccc2[n-]5)C=C4)C=C3)cc1.[I-].[Zn+2] | > 72.4 µM | 14.1 µM | 
CN(C)CCNC(=O)c1ccc(Cl)c2c(Nc3ccc(S(=O)(=O)N=C(N)N)cc3)c3ccccc3nc12 |  |  | inactive
COC(=O)C(=O)/C=C(/O)c1c(C)[nH]c2ccccc12 | > 200 µM | > 200 µM | 
CC(=O)OCC1OC(SC2=N/C(=C\c3ccc(Br)s3)C(=O)N2c2ccccc2)C(OC(C)=O)C(OC(C)=O)C1OC(C)=O (stereo unspecified) | > 200 µM | 123 µM and 33.9 µM | 
CCC(=O)[CH-]C(=O)CC.CCC(=O)[CH-]C(=O)CC.[Cu+2] | > 200 µM | 24.5 µM | 
Cc1c2ccccc2nc(CSc2ccc(Cl)cc2)[n+]1[O-] | 45.7 µM | 105 µM | 
CC[C@@]1(OP(=O)(O)O)C(=O)OCc2c1cc1n(c2=O)Cc2cc3ccccc3nc2-1 | > 10 µM | 0.0263 µM | 
CC(=O)N(C)SCC(NC(=O)C(Cc1ccccc1)NC(=O)OCc1ccccc1)C(=O)NC(Cc1ccccc1)C(=O)NC(Cc1c[nH]c2ccccc12)C(=O)NC(CCCCNC(=O)OCc1ccccc1)C(=O)NC(C(=O)NC(CSN(C)C(C)=O)C(=O)NC(C(N)=O)C(C)OCc1ccccc1)C(C)OCc1ccccc1 (stereo unspecified) (Cbz-F[X3]FWK(Cbz)T(Bn)[X3]T(Bn)-NH2; configuration not given here) | 55 µM | 85.1 µM | 
CC(=O)Nc1ccc(/C=C/C(=O)c2ccccc2)cc1 | > 38 µM | > 38 µM | 

Compound | EC50 | IC50 | outcome
CCCCN1C(=O)c2cc(=O)[nH]c(O)c2C1C (stereo unspecified) | > 1050 µM | 676 µM | 
O=S(C/C=C/CS(=O)c1ccccc1)c1ccccc1 (stereo unspecified) | > 813 µM | 70.8 µM | 
C[N+]1(Cc2ccco2)CCCCC1 | > 813 µM | > 813 µM | 
O=Cc1ccc2c(c1)CC1(C2)Cc2ccc(C=O)cc2C1 | > 200 µM | 4.79 µM | 
O=[N+]([O-])C(C(Cl)=C(Cl)Cl)=C(n1nnc2ccccc21)n1nnc2ccccc21 | > 200 µM | 26.9 µM | 
FC(F)(Sc1ccccc1)c1nc2ccccc2o1 | > 77.6 µM | 66.1 µM | 
COc1c(Cc2cc(Cl)cc(S(=O)(=O)N(C)C)c2OC)cc(Cl)cc1S(=O)(=O)N(C)C | > 14.1 µM | > 14.1 µM | 
CCOC(=O)CN1CC(C2=C(O)CN(CC(=O)OCC)C2=O)=CC1=O |  |  | inactive
CCC[CH2][Sn]1([CH2]CCC)[O]C(=O)c2ccc(C)cc2[O]1 |  |  | inactive
O=C(/C=C/c1c(O)ccc2ccccc12)c1ccccc1 | > 182 µM | > 100 µM | 
C=CC(=O)N1C/C(=C\c2ccc(F)cc2)C(=O)/C(=C/c2ccc(F)cc2)C1 | > 0.2 µM | 0.162 µM | 
COc1ccc(C2SC(=S)N(c3ccc(Cl)cc3)N2c2ccc(Cl)cc2)cc1 (stereo unspecified) | > 200 µM | 24 µM | 
CC(OC(C)(C)C)C(NC(=O)C(CCCCNC(=O)OC(C)(C)C)NC(=O)C(Cc1c[nH]c2ccccc12)NC(=O)C(Cc1ccccc1)NC(=O)OCc1ccccc1)C(=O)NC(Cc1ccccc1)C(=O)N[C@@H]1CCC[C@@H]1C(=O)OCc1ccccc1 (stereo partly specified) (Cbz-[ξF][ξW][ξK](Boc)[ξT](tBu)[ξF]-X19) |  |  | inactive
COc1ccc(CCN(C)CCCC(C#N)(c2ccc(OC)c(OC)c2)C(C)C)cc1OC (stereo unspecified) | > 200 µM | > 200 µM | 
Cc1ccccc1OCC(COC(=O)Nc1ccccc1)OC(=O)Nc1ccccc1 (stereo unspecified) | > 32.4 µM | > 32.4 µM | 
CCCCNC(=S)SSSSC(=S)NCCCC | > 200 µM | 11.2 µM | 
CNC=O | > 200 µM | > 200 µM | 
COC(=O)c1ccc(C(=O)OC)c2nc3cc(Cl)ccc3nc12 | > 30.2 µM | > 30.2 µM | 
NC(=O)NC(=O)C1CCC(=O)N1S(=O)(=O)c1ccc(Cl)cc1 (stereo unspecified) | > 724 µM | 141 µM | 
Oc1c2c(c(O)c3ccccc13)C1(N=N2)c2ccccc2Oc2ccccc21 |  |  | inactive

Compound | EC50 | IC50 | outcome
N/C(=N/n1c(=S)[nH]c2ccccc2c1=O)Nn1c(=S)[nH]c2ccccc2c1=O | > 200 µM | 19.1 µM | 
COC1C(=[N+]=[N-])C(=O)NC(=O)N1C1OC(COC(c2ccccc2)(c2ccccc2)c2ccccc2)C(O)C1O (stereo unspecified) | > 18.2 µM | > 18.2 µM | 
Cc1cc2c(c3c1c1ccccc1n3C)C(=O)c1ccccc1C2=O | > 1.7 µM | > 1.7 µM | 
CC1(C)C(=O)c2cc3ccccc3nc2-c2ccccc21 | > 200 µM | 24.5 µM | 
COc1cc(C=O)c(-c2cc(OC)c(OC)cc2C=O)cc1OC | > 44.7 µM | > 44.7 µM | 
ON=C(CC(O)(C(F)(F)Cl)C(F)(F)Cl)CC(O)(C(F)(F)Cl)C(F)(F)Cl | > 200 µM | 8.71 µM | 
Cc1ccc2c(c1)C(C(=O)N[C@@H]1C(=O)N3[C@@H]1SC(C)(C)[C@@H]3C(=O)O)OCCC2 (stereo partly specified) | > 200 µM | > 200 µM | 
C=CCC1(Sc2ccccn2)Sc2ccc3ccccc3c2-c2c(ccc3ccccc23)S1 | > 100 µM | > 100 µM | 
CCC/C(=N\NC(=S)N1CCN(c2ccccn2)CC1)c1ccccn1 | > 19.5 µM | 0.011 µM | 
O=C1C=C(Nc2ccc(Cl)cc2Cl)c2ccccc2C1=O | > 1.7 µM | > 1.7 µM | 
Cc1cc(O)c(C(=O)CC2(O)C(=O)Nc3c(Cl)cc(Cl)cc32)c(=O)o1 (stereo unspecified) | > 468 µM | > 468 µM | 
CC(=O)OCC1OC(n2c(-c3ccccc3)c(C)c(C)c(C#N)c2=S)C(OC(C)=O)C(OC(C)=O)C1OC(C)=O (stereo unspecified) | > 100 µM | > 100 µM | 
O=C1NC2C(NC(=O)N2Cl)N1Cl (stereo unspecified) | > 200 µM | > 200 µM | 
CCOC(=O)N[C@H]1CCc2cc(OC)c(OC)c(OC)c2-c2ccc(SC)c(=O)cc21 | > 0.2 µM | 0.00123 µM | 
CN(C)C=Nc1ccc2[nH]c3ccccc3c2c1 | > 200 µM | 107 µM | 
COc1ccccc1N=NC1=C2Nc3ccccc3N=C1N(c1ccccc1OC)C(=S)N2c1ccccc1C |  |  | inactive
COC(=O)/C(=C/CC(N=C(c1ccccc1)c1ccccc1)C(=O)OC)N=C(c1ccccc1)c1ccccc1 (stereo unspecified) | > 9.77 µM | > 9.77 µM | 
c1cc(C2N3CCCN2CC3)ccn1 (stereo unspecified) |  |  | inactive
